From patent US8314082B2, “Stilbene derivatives for ADP-ribosyl cyclase inhibitors” (Industrial Cooperation Foundation Chonbuk National …, priority 2006, dated 2012)
Read-outs that look alike come from different tables or passages of the source.

Tests used:
Type in all cases: cell-based
[1] = tested on: Ang II induced [Ca^2+]i increase in murine mesangial cells (MMCs); test: Ang II-mediated [Ca2+]i increase in MMCs; conditions: Mus musculus, Mesangial cell
Protocol: Changes in [Ca^2+]i in MMCs were determined as described previously [Kim et al., Exp. Mol. Med. (2006)38:535-45]. Briefly, MMCs cultured on confocal dishes for 48 h at a concentration of 10^4 cells/dish were washed with Hank's balanced salt solution (HBSS) (2 mM CaCl2, 145 mM NaCl, 5 mM KCl, 1 mM MgCl2, 5 mM D-glucose, and 20 mM HEPES, pH 7.3) and then loaded with […] Fluo 3-AM (Molecular Probe, Eugene, Oreg.). Changes in Ca^2+ fluorescence were determined at 488 nm/530 nm (excitation/emission) by air-cooled argon laser system. [Ca^2+]i was calculated using a Kd of 325 nM for Fluo 3-AM by the method of Tsien et al. (1982).

[2] = tested on: Ang II induced cADPR production in murine mesangial cells (MMCs); test: Ang II-induced intracellular cADPR concentration in MMCs; conditions: for IC50: Mus musculus, Mesangial cell, cADPR production induced by 150 nM Ang II, 90 s, MMCs, read-out: IC50([CADPR]i, uM) (means ± SEM)
Protocol: [cADPR]i was measured using a cyclic enzymatic assay as described previously [Graeff et al., Biochem. J. (2002)361:379-84]. Aplysia californica ADPR-cyclase was purified from […] according to the method described [Lee et al., Cell Regul. (1991)2:203-9]. Briefly, MMCs were treated with 0.3 ml of 0.6 M perchloric acid under sonication after Ang II treatment. Precipitates were removed by centrifugation at 20,000×g for 10 min. Perchloric acid was removed by mixing the aqueous sample with a solution containing 3 volumes of 1,1,2-trichlorotrifluoroethane to 1 volume of tri-n-octlyamine. After centrifugation for 10 min at 1500×g, the aqueous layer was collected and neutralized with 20 mM sodium phosphate (pH 8). To remove all contaminating nucleotides, the samples were incubated with the following hydrolytic enzymes overnight at 37° C.: 0.44 unit/ml nucleotide pyrophosphatase, 12.5 units/ml alkaline phosphatase, 0.0625 unit/ml NADase, and 2.5 mM MgCl2 in 20 mM sodium phosphate buffer (pH 8.0). Enzymes were removed by filtration using Centricon-3 filters. To convert cADPR to NAD^+, the samples (0.1 ml/tube) were incubated with […] of a cycling reagent containing 0.3 mg/ml Aplysia ADPR-cyclase, 30 mM nicotinamide, and 100 mM sodium phosphate (pH 8) at room temperature for 30 min. The samples were further incubated with the cycling reagent (0.1 ml) containing 2% ethanol, […] alcohol dehydrogenase, 20 mM resazurin, 10 mg/ml diaphorase, 10 mM riboflavin 5′-phosphate, 10 mM nicotinamide, 0.1 mg/ml BSA, and 100 mM sodium phosphate (pH 8.0) for 2 h at room temperature. An increase in the resorufin fluorescence was measured at 544 nm excitation and 590 nm emission using a fluorescence plate reader (Molecular Devices Corp., Spectra-Max GEMINI). Various known concentrations of cADPR were also included in the cycling reaction to generate a standard curve. […] Production of cADPR as well as later sustained Ca^2+ signal in response to Ang II was inhibited with different efficacy by these small molecules (Table 1). […] The order of IC50 was 4,4′-DAHB>resveratrol>azobenzene=piceatannol>2,2′-DAHB.

[3] = tested on: OKT3 induced [Ca^2+]i increase in Jurkat T cells; test: OKT3-mediated [Ca2+]i increase in Jurkat T cells; conditions: pretreatment, even at 10 mM; OKT3 5 mg/ml
Protocol: Changes in [Ca^2+]i in Jurkat T cells were determined as described above examples 1.

[4] = tested on: OKT3 induced cADPR production in Jurkat T cells; test: OKT3-induced [cADPR]i in Jurkat T cells; conditions: pretreatment
Protocol: [cADPR]i was measured using a cyclic enzymatic assay as described previously [Graeff et al., Biochem. J. (2002)361:379-84]. Aplysia californica ADPR-cyclase was purified from […] according to the method described [Lee et al., Cell Regul. (1991)2:203-9]. Briefly, MMCs were treated with 0.3 ml of 0.6 M perchloric acid under sonication after Ang II treatment. Precipitates were removed by centrifugation at 20,000×g for 10 min. […] After centrifugation for 10 min at 1500×g, the aqueous layer was collected and neutralized with 20 mM sodium phosphate (pH 8). To remove all contaminating nucleotides, the samples were incubated with the following hydrolytic enzymes overnight at 37° C.: 0.44 unit/ml nucleotide pyrophosphatase, 12.5 units/ml alkaline phosphatase, 0.0625 unit/ml NADase, and 2.5 mM MgCl2 in 20 mM sodium phosphate buffer (pH 8.0). Enzymes were removed by filtration using Centricon-3 filters. […] An increase in the resorufin fluorescence was measured at 544 nm excitation and 590 nm emission using a fluorescence plate reader (Molecular Devices Corp., Spectra-Max GEMINI). […] Measurement of [cADPR]i in Jurkat T cells were determined as described above examples 5.

[5] = later sustained Ca2+ signal induced by 150 nM Ang II, 300 s, read-out: IC50([Ca^2+]i, uM) (means ± SEM)

IC50 [1, 5] [µM] | IC50 [2] [µM] | IC50 ([1]; Ang II, pretreatment, read-out: IC50 for block of the sustained Ca2+ signal) [µM] | Compound | effect on OKT3-mediated Ca2+ rise [3] | effect on OKT3-mediated [cADPR]i [4] | concentration at which cADPR production stimulated by Ang II is inhibited ([2]; MMC) [nM]
15 ± 1.5 | 16.5 ± 2.5 |  | Oc1ccccc1/N=N/c1ccccc1O [2,2′-DHAB, 2,2′-Dihydroxyazobenzene] | did not show any effects | didn't inhibited | 
0.0025 ± 0.0002 | 0.0025 ± 0.0003 | ~0.0025 | Oc1ccc(N=Nc2ccc(O)cc2)cc1 [4,4′-DHAB, 4,4′-Dihydroxyazobenzene] | did not show any effects | didn't inhibited | 5
